In assay [1] the test system is TLR4. In words: LPS-induced TNFα in PMA-differentiated U937 cells, ELISA. The format is cell-based, human. Particulars: peptide 5 or 20 μM 1 h before 100 ng/ml LPS, 24 h. On the procedure: FIGS. 3A and B are bar charts showing the effect of peptides derived from A46 on LPS-induced TNFα in human U937 cells. Cells were differentiated with 200 nM PMA and seeded in 96 well plates (2×10^5 cells/ml) 24 hours before treatment. A46 peptides were added to the cells at a concentration of 5 or 20 μM 1 hour before stimulating with 100 ng/ml LPS. Supernatants were collected 24 hours after stimulation and assayed for TNFα by ELISA. No peptides were added into the control wells (black bars). (A) peptides A461-A467 (SEQ ID NO. 17 to 23). (B) peptides A468-A4614 (SEQ ID NO. 24 to 30) (excluding A4612 SEQ ID NO. 28). Data is representative of at least two experiments each performed in triplicate and is expressed as mean±s.d;
Chain of TLR4 (O00206 24-839): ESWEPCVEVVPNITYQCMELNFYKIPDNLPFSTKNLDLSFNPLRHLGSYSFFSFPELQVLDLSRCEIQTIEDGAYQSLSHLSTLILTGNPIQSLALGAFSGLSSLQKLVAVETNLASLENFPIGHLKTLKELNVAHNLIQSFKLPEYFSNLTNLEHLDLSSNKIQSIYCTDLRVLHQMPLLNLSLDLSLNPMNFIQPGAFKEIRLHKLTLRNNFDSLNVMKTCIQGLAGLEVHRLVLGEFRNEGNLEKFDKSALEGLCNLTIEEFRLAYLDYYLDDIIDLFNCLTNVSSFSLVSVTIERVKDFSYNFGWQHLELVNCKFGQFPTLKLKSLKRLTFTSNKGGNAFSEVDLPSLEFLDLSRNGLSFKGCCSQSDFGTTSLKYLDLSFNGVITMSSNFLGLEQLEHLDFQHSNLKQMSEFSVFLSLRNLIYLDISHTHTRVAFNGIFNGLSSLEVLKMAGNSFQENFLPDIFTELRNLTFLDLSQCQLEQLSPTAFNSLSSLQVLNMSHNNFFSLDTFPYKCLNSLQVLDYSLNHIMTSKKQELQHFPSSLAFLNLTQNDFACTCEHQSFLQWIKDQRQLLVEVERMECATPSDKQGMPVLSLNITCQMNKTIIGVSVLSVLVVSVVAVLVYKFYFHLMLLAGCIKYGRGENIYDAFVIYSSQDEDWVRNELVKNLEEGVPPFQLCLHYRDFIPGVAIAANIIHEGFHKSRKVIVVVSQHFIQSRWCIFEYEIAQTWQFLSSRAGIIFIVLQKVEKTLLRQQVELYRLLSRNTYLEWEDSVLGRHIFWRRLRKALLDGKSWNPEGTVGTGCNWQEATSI
Chain of TLR4 (Q9Y6Y9 17-160 partner limits assumed): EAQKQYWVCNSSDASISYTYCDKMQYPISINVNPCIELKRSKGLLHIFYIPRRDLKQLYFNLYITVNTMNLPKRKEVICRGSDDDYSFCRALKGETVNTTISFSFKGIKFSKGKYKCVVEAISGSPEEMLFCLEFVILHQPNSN
Cytokine and chemokine production from cells or mouse serum was measured by ELISA using Duoset kits from R&D systems, according to the manufacturer's instructions.
LPS is a component of a cell wall of Gram-negative bacteria which is recognised by a homodimer of TLR4 and signals to NFκB via both a MyD88- and TRIF-dependent pathway (O'Neill and Bowie, 2007). In order to examine the effect of the peptides on TLR4-dependent gene induction in human cells, the human monocytic lymphoma cell line U937 was used. U937 cells were differentiated into macrophages by treatment with 200 nM PMA for 24 hours before any further manipulations. […]
For orientation: In an ELISA, binding on a coated surface is turned into a signal by an enzyme label.

The subject of assay [2] is TLR4. Briefly: LPS-induced NFκB reporter assay in HEK293_TLR4 cells. The format is cell-based, human. As to conditions: peptide 5 or 25 μM added 2 or 9 hours after 10 ng/ml LPS. On the procedure:
FIGS. 20A and B are bar charts showing the effect of shortened A464 peptides with deletions of N- and C-terminal amino acids on TLR4- and TLR3-induced NFκB activation in HEK293 cells. HEK293_TLR4 (A) and HEK293_TLR3 (B) cells were seeded in 96 well plates (1.5×10^5 cells/ml) 24 hours before transfection with the plasmid DNA. Cells were transfected with 60 ng NFκB-Luciferase and 20 ng of TK-Renilla reporter genes, as in FIG. 11. A464N-2 (SEQ ID NO. 41) and A464C-3 (SEQ ID NO. 42) peptides were added to the cells at a concentration of 1, 5 or 25 μM the next day and cells were stimulated with either 10 ng/ml LPS (A) or 25 μg/ml Poly(I:C) (B) 1 hour after treatment with peptides. Cells were harvested and assayed for NFκB activation by reporter gene assay 6 hours after stimulation with the agonists. No peptides were added to the control wells (black bars). Data is representative of three experiments each performed in triplicate and is expressed as mean fold induction±s.d. relative to control levels;
FIGS. 24A and B are bar charts showing the effect of A464 on ligand-independent TLR4 signalling in HEK293 cells. HEK293_TLR4 cells were seeded in 96 well plate (1.5×10^5 cells/ml) 24 hours before transfection with NFκB-luciferase and TK-Renilla reporter gene plasmids. NFκB activation was stimulated by transfecting either 50 or 100 ng of CD4/TLR4-encoding plasmid or by stimulating with 10 ng/ml LPS. The total amount of plasmid DNA transfected into the cells was made up to 230ng by adding pcDNA. A464 (SEQ ID NO. 20) was added to the cells at a concentration of 5 or 25 μM 2 hours (A) or 9 hours (B) after the transfection or LPS-stimulation. Cells were harvested and assayed for NFκB activation by reporter gene assay 24 hours post-transfection. No peptides were added to the control wells (black bars). Data is representative of two experiments, each performed in triplicate and is expressed as mean fold induction±s.d. relative to control levels;
HEK293 cells were transfected using GeneJuice® a proprietary non-toxic transfection reagent. […]
On the technique in general: In a reporter assay the amount or activity of a reporter protein is the signal.

Results on one sequence are retold here after patent publication US8722052B2, “Vaccinia virus protein A46 peptide and use thereof” (priority 2008, dated 2014).

“Also recorded” adds a separate entry of the source.

Regarding KYSFKLILAEYRRRRRRRRR [Peptide A464], the “inhibition of LPS (TLR4)-induced TNFα production” value in the assay on TLR4 [1] is on record as “potently inhibit TLR4-mediated TNFα production; also recorded: very potent inhibitory effect”. The “inhibition of LPS-induced NFκB activation” value in the assay with TLR4 [2] was “capable of inhibiting LPS-induced NFκB activation”.
